Measured values published in PMC10821019, “F16 Hybrids Derived from Steviol or Isosteviol Are Accumulated in the Mitochondria of Tumor Cells and Overcome Drug Resistance” (Molecules, 2024).

Tests used:
[1] = system: A2780 (ovarian carcinoma); assay: SRB cytotoxicity assay, A2780; assay type: cell-based, human; settings: for selectivity index 1 (SI 1): CCD18Co/A2780; for IC50: SRB assay, 72 h treatment, mean n = 3, SD 5-10%
Description: (§1) All compounds were screened for their cytotoxic activity and tumor cell selectivity using our standard model, previously described, comprising a selection of human tumor cell lines representing different solid tumor entities and non-malignant human fibroblasts (CCD18Co) including the cell line pair A2780/A2780cis, a well-known model of acquired drug resistance.
(§2) Reagents were bought from commercial suppliers and used without further purification. The solvents were dried according to the usual procedures. TLC was performed on silica gel (Macherey-Nagel, detection with UV absorption; Macherey-Nagel, Düren, Germany). […] Numbering in the NMR spectra: 1–20 (diterpene core), 21–24 for O-(CH2)n-N fragment followed by the pyridinium ring, the ethenyl moiety and the indole moiety. […] IR spectra were recorded on a Perkin-Elmer Spectrum Two (UATR Two Unit, Perkin-Elmer GmbH, Rodgau, Germany). […] Both media were supplemented with 10% fetal bovine serum (Biowest, Nuaillé, France) and 1% penicillin-streptomycin (Sigma-Aldrich).
(§3) Cytotoxic activities of compounds were analyzed using the SRB cytotoxicity assay. Cells were seeded in 96-well plates and after 24 h were treated with serial dilutions of compounds for 72 h. All subsequent steps were performed according to the previously described SRB assay protocol. Dose–response curves and calculation of IC50 values, including standard deviations, were carried out using GraphPad Prism8.

[2] = system: A2780cis (resistant derivative of A2780); assay: SRB cytotoxicity assay, A2780cis; assay type: cell-based, human; settings: for IC50: SRB assay, 72 h treatment, mean n = 3, SD 5-10%; for resistance index (RI): quotient IC50 values A2780cis/A2780
Description: as §1, §2, §3

A549 (lung carcinoma) = assay: SRB cytotoxicity assay, A549; assay type: cell-based, human; settings: for selectivity index 2 (SI 2): CCD18Co/A549; for IC50: SRB assay, 72 h treatment, mean n = 3, SD 5-10%
Description: as §1, §2, §3

MCF7 (breast carcinoma) = assay: SRB cytotoxicity assay, MCF7; assay type: cell-based, human; settings: 72 h treatment, mean n = 3, SD 5-10%
Description: as §1, §2, §3

[3] = system: HT29 (colorectal carcinoma); assay: SRB cytotoxicity assay, HT29; assay type: cell-based, human; settings: 72 h treatment, mean n = 3, SD 5-10%
Description: as §1, §2, §3

[4] = system: CCD18Co (non-malignant human fibroblasts); assay: SRB cytotoxicity assay, CCD18Co; assay type: cell-based; settings: 72 h treatment, mean n = 3, SD 5-10%
Description: as §1, §2, §3

Row | Molecule | selectivity index 1 (SI 1) [1] | IC50 [1] | IC50 [2] | resistance index (RI) [2] | selectivity index 2 (SI 2) (A549 (lung carcinoma)) | IC50 (A549 (lung carcinoma)) | IC50 (MCF7 (breast carcinoma)) | IC50 [3] | IC50 [4]
1 | C=C1C[C@@]23CC[C@H]4[C@@](C)(CCC[C@@]4(C)C(=O)OCC[n+]4ccccc4/C=C/c4c[nH]c5ccccc45)[C@@H]2CC[C@]1(O)C3.[Br-] [Compound 12, 2-{2-[(E)-2-(1H-Indol-3-yl)ethenyl]-pyridinium-1-yl}-ethyl (4α)-13-Hydroxykaur-16-en-18-oate Bromide] | 2.95 | 25.7 µM | 29.4 µM | 1.14 | 1.40 | 54.3 µM | 20.2 µM | 28.5 µM | 75.9 µM
2 | CC12CCC3C(CCC4C(C)(C(=O)OCCCC[n+]5cccc(C=Cc6c[nH]c7ccccc67)c5)CCCC34C)(CC1=O)C2.[Br-] (stereo not drawn) [Compound 27, 4-{3-[(E)-2-(1H-Indol-3-yl)ethenyl]-pyridinium-1-yl}butyl (4α, 8β, 13β) 13-Methyl-16-oxo-17-norkauran-18-oate Bromide] | 14.18 | 0.76 µM | 1.27 µM | 1.67 | 1.72 | 6.28 µM | 1.57 µM | 2.2 µM | 10.8 µM
3 | CC12CCC3C(CCC4C(C)(C(=O)OCC[n+]5ccccc5C=Cc5c[nH]c6ccccc56)CCCC34C)(CC1=O)C2.[Br-] (stereo not drawn) [Compound 13, 2-{2-[(E)-2-(1H-Indol-3-yl)ethenyl]-pyridinium-1-yl}-ethyl (4α, 8β, 13β) 13-Methyl-16-oxo-17-norkauran-18-oate Bromide] | 10.75 | 1.92 µM | 4.07 µM | 2.12 | 1.90 | 10.8 µM | 3.83 µM | 6.35 µM | 20.6 µM
4 | CC12CCC3C(CCC4C(C)(C(=O)OCCCBr)CCCC34C)(CC1=O)C2 (stereo not drawn) [Compound 15, 3-Bromopropyl (4α, 8β, 13β) 13-Methyl-16-oxo-17-norkauran-18-oate] | 4.61 | 9 µM | 16.6 µM | 1.85 | 1.67 | 24.8 µM | 12.8 µM | 15.1 µM | 41.5 µM
5 | C=C1C[C@@]23CC[C@H]4[C@@](C)(CCC[C@@]4(C)C(=O)OCCC[n+]4ccc(/C=C/c5c[nH]c6ccccc56)cc4)[C@@H]2CC[C@]1(O)C3.[Br-] [Compound 16, 3-{4-[(E)-2-(1H-Indol-3-yl)ethenyl]-pyridinium-1-yl}-propyl (4α)-13-Hydroxykaur-16-en-18-oate Bromide] | 26.27 | 0.32 µM | 0.45 µM | 1.41 | 2.77 | 3 µM | 0.72 µM | 0.98 µM | 8.33 µM
6 | C=C1C[C@@]23CC[C@H]4[C@@](C)(CCC[C@@]4(C)C(=O)OCCCC[n+]4ccccc4/C=C/c4c[nH]c5ccccc45)[C@@H]2CC[C@]1(O)C3.[Br-] [Compound 28] | 21.75 | 0.5 µM | 1.68 µM | 3.33 | 1.46 | 7.51 µM | 1.18 µM | 1.78 µM | 10.9 µM
7 | C=C1C[C@@]23CC[C@H]4[C@@](C)(CCC[C@@]4(C)C(=O)OCC[n+]4cccc(/C=C/c5c[nH]c6ccccc56)c4)[C@@H]2CC[C@]1(O)C3 [Compound 10, 2-{3-[(E)-2-(1H-Indol-3-yl)ethenyl]-pyridinium-1-yl}-ethyl (4α)-13-Hydroxykaur-16-en-18-oate Bromide] | – | 2.8 µM | 4.2 µM | – | – | – | 3.83 µM | 7.65 µM | 22.7 µM
8 | 4-Bromobutyl (4α) -13-Hydroxykaur-16-en-18-oate Bromide [Compound 22] | 3.58 | – | – | 1.14 | 1.68 | – | – | – | –
